Results as given in article PMC10415282, “High resolution cryo-EM and crystallographic snapshots of the actinobacterial two-in-one 2-oxoglutarate dehydrogenase” (Nature Communications, 2023).

B1: Mycobacterium smegmatis KGD, full-length (enzyme, UniProt A0R2B1 1-1227, looked up)
chain: MSSSPSPFGQNEWLVEEMYRKFRDDPSSVDPSWHEFLVDYSPEPTTDSASNGRTTTAAPVTPPTPAPAPAPEPKAAPKPAAKTEAKPAKPAKSATPAKGDESQILRGAAAAVVKNMNASLEVPTATSVRAIPAKLMIDNRVVINNHLKRTRGGKISFTHLLGYAIVQAVKKFPNMNRHFAVVDGKPTAITPAHTNLGLAIDLQGKDGNRSLVVAAIKRCETMRFGQFIAAYEDIVRRARDGKLTAEDFSGVTISLTNPGTLGTVHSVPRLMQGQGAIIGAGAMEYPAEFQGASEERIADLGIGKLITLTSTYDHRIIQGAESGDFLRTIHQLLLDDDFFDEIFRELGIPYEPVRWRTDNPDSIEDKNARVIELIAAYRNRGHLMADIDPLRLDNTRFRSHPDLDVNSHGLTLWDLDREFKVDGFAGVQRKKLRDILSVLRDAYCRHVGVEYTHILEPEQQRWIQERVETKHDKPTVAEQKYILSKLNAAEAFETFLQTKYVGQKRFSLEGAETVIPMMDAVIDQCAEHGLDEVVIAMPHRGRLNVLANIVGKPYSQIFSEFEGNLNPSQAHGSGDVKYHLGATGTYIQMFGDNDIEVSLTANPSHLEAVDPVLEGLVRAKQDLLDTGEEGSDNRFSVVPLMLHGDAAFAGQGVVAETLNLALLRGYRTGGTIHIVVNNQIGFTTAPTDSRSSEYCTDVAKMIGAPIFHVNGDDPEACAWVARLAVDFRQAFKKDVVIDMLCYRRRGHNEGDDPSMTQPYMYDVIDTKRGSRKAYTEALIGRGDISMKEAEDALRDYQGQLERVFNEVRELEKHEIEPSESVEADQQIPSKLATAVDKAMLQRIGDAHLALPEGFTVHPRVRPVLEKRREMAYEGRIDWAFAELLALGSLIAEGKLVRLSGQDTQRGTFTQRHAVIVDRKTGEEFTPLQLLATNPDGTPTGGKFLVYNSALSEFAAVGFEYGYSVGNPDAMVLWEAQFGDFVNGAQSIIDEFISSGEAKWGQLSDVVLLLPHGHEGQGPDHTSGRIERFLQLWAEGSMTIAMPSTPANYFHLLRRHGKDGIQRPLIVFTPKSMLRNKAAVSDIRDFTESKFRSVLEEPMYTDGEGDRNKVTRLLLTSGKIYYELAARKAKENREDVAIVRIEQLAPLPRRRLAETLDRYPNVKEKFWVQEEPANQGAWPSFGLTLPEILPDHFTGLKRISRRAMSAPSSGSSKVHAVEQQEILDTAFG
notes: KGD (two-in-one 2-oxoglutarate dehydrogenase, E2o and E1o domains on one chain), Mycobacterium smegmatis, full-length protein; Crystallised with 2 mM ThDP and 5 mM MgCl2; also called MsKGD; mycobacterial KGD; source: E. coli BL21(DE3)pLysS, purified as previously described

Assays:
OdhA = target: T1, OdhA (Corynebacterium glutamicum, UniProt Q8NRC3); assay: cryo-EM structure, […] Å; assay type: binding; conditions: allosteric, E1o domain pocket; no ligand added (co-purified from E. coli); activated conformation
T1 construct: full length residues 1-1221, E. coli BL21(DE3), N-terminal His6-TEV tag cleaved for cryo-EM (OdhA-His6 kept for SPR); homohexamer, ~800 kDa

[1] = target: the molecule itself; assay: crystal structure; MsKGD (10 mg/ml, 2 mM ThDP, 5 mM MgCl2) co-crystallised with GarA at 1:1 molar ratio; 0.1 M bicine pH 8.0, 30% PEG550MME, 0.2 M NaCl; 4.6 Å

T1 sequence (Q8NRC3 whole entry, the tested form may be a part): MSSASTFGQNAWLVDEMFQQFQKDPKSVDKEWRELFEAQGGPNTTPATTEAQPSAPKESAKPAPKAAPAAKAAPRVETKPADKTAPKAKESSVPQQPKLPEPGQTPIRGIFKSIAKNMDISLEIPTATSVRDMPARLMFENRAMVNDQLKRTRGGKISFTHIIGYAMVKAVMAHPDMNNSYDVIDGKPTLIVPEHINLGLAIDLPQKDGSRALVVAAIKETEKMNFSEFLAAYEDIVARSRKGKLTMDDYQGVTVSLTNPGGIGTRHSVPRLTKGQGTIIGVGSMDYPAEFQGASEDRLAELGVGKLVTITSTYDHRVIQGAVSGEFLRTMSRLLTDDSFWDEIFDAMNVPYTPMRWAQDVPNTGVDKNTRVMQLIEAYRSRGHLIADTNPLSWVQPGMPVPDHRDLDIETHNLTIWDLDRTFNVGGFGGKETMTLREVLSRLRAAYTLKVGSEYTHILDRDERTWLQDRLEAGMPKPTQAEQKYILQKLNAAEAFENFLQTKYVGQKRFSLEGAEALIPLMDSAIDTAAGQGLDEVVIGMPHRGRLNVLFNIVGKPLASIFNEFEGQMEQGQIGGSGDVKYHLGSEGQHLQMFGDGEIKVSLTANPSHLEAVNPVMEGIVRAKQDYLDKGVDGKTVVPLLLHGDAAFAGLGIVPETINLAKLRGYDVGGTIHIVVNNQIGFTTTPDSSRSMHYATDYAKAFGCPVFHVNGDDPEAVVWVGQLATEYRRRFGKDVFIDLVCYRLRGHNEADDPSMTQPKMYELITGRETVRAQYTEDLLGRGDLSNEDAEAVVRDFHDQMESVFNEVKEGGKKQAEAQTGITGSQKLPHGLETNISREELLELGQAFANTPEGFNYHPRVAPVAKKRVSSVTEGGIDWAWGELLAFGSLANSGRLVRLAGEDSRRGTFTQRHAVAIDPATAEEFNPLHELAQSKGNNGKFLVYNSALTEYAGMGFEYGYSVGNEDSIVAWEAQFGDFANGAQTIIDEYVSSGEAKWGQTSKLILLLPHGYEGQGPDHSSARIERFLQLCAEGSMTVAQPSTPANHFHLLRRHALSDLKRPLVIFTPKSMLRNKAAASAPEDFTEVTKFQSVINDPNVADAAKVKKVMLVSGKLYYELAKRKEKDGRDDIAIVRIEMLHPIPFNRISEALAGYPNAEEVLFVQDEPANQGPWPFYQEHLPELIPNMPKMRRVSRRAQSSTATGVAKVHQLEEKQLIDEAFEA

Row | Molecule | cryo-EM structure, 2.2 Å (OdhA) | stoichiometry N [1]
1 | CC(=O)SCCNC(=O)CCNC(=O)[C@H](O)C(C)(C)COP(=O)(O)OP(=O)(O)OC[C@H]1O[C@@H](n2cnc3c(N)ncnc32)[C@H](O)[C@@H]1OP(=O)(O)O [acetyl-CoA] | show an acetyl-CoA molecule bound to E1o allosteric site which could be positioned unambiguously | –
2 | B1 | – | 6
